Measurements from US12649727B2, “EFGR inhibitor, preparation method therefor and application thereof” (Abbisko Therapeutics Co., Ltd, priority 2020, dated 2026).

Tests used:
Format in all cases: cell-based
A431 (EGFR-WT) = assay: Proliferation experiment, A431 cell line (CellTiter-Glo); conditions: Homo sapiens, A-431; A431 cells, cultured for 72 hrs with compound, CTG analysis
Protocol: [The procedure below names another cell line; the source lists this cell line under the same test.] (§1) Proliferation Experiment of Ba/F3 Cell Line
(§2) (I) Reagents and Materials
(§3) • Fetal bovine serum FBS (GBICO, Cat #10099-141); • CellTiter-Glo® luminescent cell viability assay kit (Promega, Cat #G7572); • Black transparent flat-bottom 96 well plate (Corning®, Cat #3603). (II) Instruments • SpectraMax multi-label microplate reader MD, 2104-0010A; • Carbon dioxide incubator, Thermo Scientific 3100 series; • Biological safety cabinet, Thermo Scientific, 1300 series model A2; • Inverted microscope, Olympus, CKX41SF; • Siemens refrigerator KK25E76TI. (III) Cell Lines and Culture Conditions
(§4) (IV) Experimental Procedures 1. Cell Culture and Inoculation: • (1) Cells in the logarithmic growth phase were harvested and counted using a […]. Cell viability was detected by Trypan Blue Dye Exclusion Method to ensure cell viability above 90%. • (2) The cell concentration was adjusted to reach a desired final density; 90 μL of cell suspension was added to the 96-well plate. • (3) The cells were incubated overnight in the 96-well plate at 37° C., 5% CO2 and at 95% humidity.
(§5) 2. T0 Reference Data: • (1) 10 μL PBS was added to each well of the TO plate containing the cells. • (2) The CTG reagent was thawed and the cell plate was equilibrated to room temperature for 30 min. • (3) An equal volume of CTG solution was added to each well. • (4) The cells were lysed by shaking on an orbital shaker for 5 min. • (5) The cell plate was left at room temperature for 20 min to stabilize the luminescence signal. • (6) The fluorescence signal values of TO were read. 3. Dilution and Addition of Compounds • (1) According to the compound information table, a corresponding volume of DMSO was added to the corresponding compound powder to prepare a 10 mM stock solution. • (2) A 1000-fold, 3.16-fold-diluted compound solution was prepared. • (3) The 1000× diluted compound solution was diluted 100-fold with PBS to prepare a 10-fold compound solution with a maximum concentration of […], including 9 concentrations, with 3.16-fold dilution, and 10 μL of the medicament solution was added to each well of the 96-well plate to seed the cells. Triplicate wells were set for each compound concentration, with a final concentration of DMSO being 0.1%. • (4) The cells were placed in the 96-well plate filled with the medicament at 37° C., 5% CO2 and at 95% humidity, and cultured for 72 hrs before CTG analysis. 4. Fluorescence Signal Reading • (1) The CTG reagent was thawed and the cell plate was equilibrated to room temperature for 30 min. • (2) An equal volume of CTG solution was added to each well. • (3) The cells were lysed by shaking on an orbital shaker for 5 min. • (4) The cell plate was left at room temperature for 20 min to stabilize the fluorescence signal. • (5) The fluorescence values were read. 5. Data Processing
(§6) Data were analyzed using GraphPad Prism 7.0 software and fitted data were regressed using non-linear S-curves to obtain dose-response curves from which IC50 values (in nM) were calculated.

[1] = biological target: Ba/F3 EGFR-D770-N771ins_SVD (Homo sapiens, UniProt P00533, DUP768-770, cells depend on it); assay: Proliferation experiment of Ba/F3 cell line, EGFR-D770-N771ins_SVD (CellTiter-Glo); conditions: cultured for 72 hrs with compound, CTG analysis, read-out: Ba/F3 EGFR-D770-N771ins_SVD IC50
Protocol: as §1, §2, §3, §4, §5, §6

[2] = biological target: Ba/F3 EGFR-V769_D770insASV (Homo sapiens, UniProt P00533, DUP767-769, cells depend on it); assay: Proliferation experiment of Ba/F3 cell line, EGFR-V769_D770insASV (CellTiter-Glo); conditions: cultured for 72 hrs with compound, CTG analysis, read-out: Ba/F3 EGFR-V769_D770insASV IC50
Protocol: as §1, §2, §3, §4, §5, §6

Ba/F3 EGFR-D770-N771ins_SVD, sequence (P00533 with tags, fused parts or gaps DUP768-770): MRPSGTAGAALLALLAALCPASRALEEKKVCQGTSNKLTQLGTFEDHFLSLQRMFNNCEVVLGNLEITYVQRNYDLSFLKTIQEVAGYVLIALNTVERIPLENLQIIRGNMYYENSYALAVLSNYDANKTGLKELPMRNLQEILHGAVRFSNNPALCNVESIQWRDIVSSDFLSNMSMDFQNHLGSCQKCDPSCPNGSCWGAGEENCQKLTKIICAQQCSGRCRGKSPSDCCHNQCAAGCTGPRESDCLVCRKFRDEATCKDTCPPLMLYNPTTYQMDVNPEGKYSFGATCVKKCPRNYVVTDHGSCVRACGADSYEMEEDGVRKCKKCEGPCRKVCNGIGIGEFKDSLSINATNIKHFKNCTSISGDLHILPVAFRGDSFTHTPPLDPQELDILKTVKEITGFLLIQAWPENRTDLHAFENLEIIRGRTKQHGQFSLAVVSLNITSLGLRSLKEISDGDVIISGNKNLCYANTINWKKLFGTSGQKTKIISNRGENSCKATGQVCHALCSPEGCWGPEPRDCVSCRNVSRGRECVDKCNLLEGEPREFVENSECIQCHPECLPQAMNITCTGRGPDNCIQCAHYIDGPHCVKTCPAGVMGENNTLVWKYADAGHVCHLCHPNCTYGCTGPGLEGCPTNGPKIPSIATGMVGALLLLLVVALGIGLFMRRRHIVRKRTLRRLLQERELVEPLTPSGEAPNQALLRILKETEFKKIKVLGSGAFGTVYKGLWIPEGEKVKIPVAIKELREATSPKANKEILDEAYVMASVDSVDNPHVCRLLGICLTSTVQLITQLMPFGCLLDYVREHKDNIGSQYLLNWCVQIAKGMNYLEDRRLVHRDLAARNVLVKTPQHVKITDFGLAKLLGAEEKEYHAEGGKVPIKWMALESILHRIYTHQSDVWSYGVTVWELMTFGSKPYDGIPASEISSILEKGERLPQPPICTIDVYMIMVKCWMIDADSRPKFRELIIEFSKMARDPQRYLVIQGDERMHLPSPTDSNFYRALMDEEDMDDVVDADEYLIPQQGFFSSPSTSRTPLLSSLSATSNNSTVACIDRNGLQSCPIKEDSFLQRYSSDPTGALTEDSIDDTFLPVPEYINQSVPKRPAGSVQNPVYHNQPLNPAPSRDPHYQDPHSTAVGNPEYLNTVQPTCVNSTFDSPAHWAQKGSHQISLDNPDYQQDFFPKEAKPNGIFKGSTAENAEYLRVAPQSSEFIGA
Ba/F3 EGFR-V769_D770insASV, sequence (P00533 with tags, fused parts or gaps DUP767-769): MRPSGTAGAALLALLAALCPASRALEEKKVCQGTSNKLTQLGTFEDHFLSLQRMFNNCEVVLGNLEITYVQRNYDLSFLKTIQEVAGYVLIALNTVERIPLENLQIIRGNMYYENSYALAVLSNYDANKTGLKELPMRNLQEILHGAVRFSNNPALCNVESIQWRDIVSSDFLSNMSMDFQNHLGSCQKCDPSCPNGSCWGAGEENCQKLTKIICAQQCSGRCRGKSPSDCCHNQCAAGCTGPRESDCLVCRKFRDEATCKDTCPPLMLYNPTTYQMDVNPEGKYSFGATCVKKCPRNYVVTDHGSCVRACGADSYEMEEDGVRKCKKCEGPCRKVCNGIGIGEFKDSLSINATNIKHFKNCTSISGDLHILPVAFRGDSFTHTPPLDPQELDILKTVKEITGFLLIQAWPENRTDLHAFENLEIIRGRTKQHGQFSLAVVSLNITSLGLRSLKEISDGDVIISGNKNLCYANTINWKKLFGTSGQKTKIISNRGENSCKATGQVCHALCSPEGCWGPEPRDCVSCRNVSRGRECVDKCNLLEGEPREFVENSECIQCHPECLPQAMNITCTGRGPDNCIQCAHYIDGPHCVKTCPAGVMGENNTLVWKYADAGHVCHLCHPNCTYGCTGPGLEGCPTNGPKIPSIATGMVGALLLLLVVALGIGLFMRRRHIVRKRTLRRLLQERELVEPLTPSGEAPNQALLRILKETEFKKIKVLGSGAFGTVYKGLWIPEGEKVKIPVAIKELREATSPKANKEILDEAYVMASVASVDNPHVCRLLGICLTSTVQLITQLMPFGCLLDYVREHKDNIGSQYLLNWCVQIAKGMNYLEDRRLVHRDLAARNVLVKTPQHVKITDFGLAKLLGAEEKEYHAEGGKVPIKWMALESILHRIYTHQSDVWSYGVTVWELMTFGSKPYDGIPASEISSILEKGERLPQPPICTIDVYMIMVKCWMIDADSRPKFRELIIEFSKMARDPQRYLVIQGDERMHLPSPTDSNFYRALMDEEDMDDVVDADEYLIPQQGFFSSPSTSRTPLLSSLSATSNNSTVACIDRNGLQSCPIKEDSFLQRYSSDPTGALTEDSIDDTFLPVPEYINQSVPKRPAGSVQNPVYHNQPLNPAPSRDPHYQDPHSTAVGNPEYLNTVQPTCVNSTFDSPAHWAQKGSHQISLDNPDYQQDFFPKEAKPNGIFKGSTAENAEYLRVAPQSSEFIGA

IC50 (A431 (EGFR-WT)) [nM] | GI50 [1] [nM] | GI50 [2] [nM] | SMILES
20.5 | 1.6 | 2.4 | C=CC(=O)Nc1cc2c(Nc3ccnc(-c4ccccc4F)c3)ncnc2cc1OCCCN1CCN(CCOC)CC1 [Example 123, N-(4-((2-(2-fluorophenyl)pyridin-4-yl)amino)-7-(3-(4-(2-methoxyethyl)piperazin-1-yl)propoxy)quinazolin-6-yl)acrylamide]
66 | 17 | 27 | C=CC(=O)Nc1cc2c(Nc3cccc(-c4ccccc4F)c3)ncnc2cc1OCCCN1CCOCC1 [Example 45, N-(4-((2′-fluoro-[1,1′-biphenyl]-3-yl)amino)-7-(3-morpholinopropoxy)quinazolin-6-yl)acrylamide]
372 | 15 | 25.4 | C=CC(=O)Nc1cc2c(Nc3ccc(F)c(-c4c(F)cccc4F)c3)ncnc2cc1OCCCN1CCN(C)CC1 [Example 40, N-(7-(3-(4-methylpiperazin-1-yl)propoxy)-4-((2′,6,6′-trifluoro-[1,1′-biphenyl]-3-yl)amino)quinazolin-6-yl)acrylamide]
302 | 31.6 | 47.5 | C=CC(=O)Nc1cc2c(Nc3cccc(-c4c(F)cccc4F)c3)ncnc2cc1O[C@@H]1CCN(C)C1 [Example 37, (R)-N-(4-((2′,6′-difluoro-[1,1′-biphenyl]-3-yl)amino)-7-((1-methylpyrrolidin-3-yl)oxy)quinazolin-6-yl)acrylamide]
44.1 | 6.5 | 16.5 | C=C(F)C(=O)Nc1cc2c(Nc3ccnc(-c4ccccc4F)c3)ncnc2cc1O[C@@H]1CCN(C2CCOCC2)C1 [Example 121, (R)-2-fluoro-N-(4-((2-(2-fluorophenyl)pyridin-4-yl)amino)-7-((1-(tetrahydro-2H-pyran-4-yl)pyrrolidin-3-yl)oxy)quinazolin-6-yl)acrylamide]
972 | 14.1 | 38.1 | C=CC(=O)Nc1cc2c(Nc3cncc(-c4ccccc4F)c3)ncnc2cc1O[C@@H]1CCN(C)C1 [Example 63, (R)-N-(4-((5-(2-fluorophenyl)pyridin-3-yl)amino)-7-((1-methylpyrrolidin-3-yl)oxy)quinazolin-6-yl)acrylamide]
461 | 11.9 | 35.8 | C=C(F)C(=O)Nc1cc2c(Nc3ccnc(-c4ccccc4F)c3)ncnc2cc1OC1CC1 [Example 90, N-(7-cyclopropoxy-4-((2-(2-fluorophenyl)pyridin-4-yl)amino)quinazolin-6-yl)-2-fluoroacrylamide]
287 | 31.8 | 55.6 | C=CC(=O)Nc1cc2c(Nc3ccc(F)c(-c4ccc(F)cc4)c3)ncnc2cc1OCCCN1CCN(C)CC1 [Example 42, N-(4-((4′,6-difluoro-[1,1′-biphenyl]-3-yl)amino)-7-(3-(4-methylpiperazin-1-yl)propoxy)quinazolin-6-yl)acrylamide]
223 | 13 | 20.3 | C=CC(=O)Nc1cc2c(Nc3cccc(-c4c(F)cccc4F)c3)ncnc2cc1OCCCN1CCN(C)CC1 [Example 5, N-(4-((2′,6′-difluoro-[1,1′-biphenyl]-3-yl)amino)-7-(3-(4-methylpiperazin-1-yl)propoxy)quinazolin-6-yl)acrylamide]
357 | 11.4 | 22.6 | C=CC(=O)Nc1cc2c(Nc3cccc(-n4nccn4)c3)ncnc2cc1OCCCN1CCN(C)CC1 [Example 56, N-(4-((3-(2H-1,2,3-triazol-2-yl)phenyl)amino)-7-(3-(4-methylpiperazin-1-yl)propoxy)quinazolin-6-yl)acrylamide]
173 | 3.9 | 11.6 | C=CC(=O)Nc1cc2c(Nc3ccnc(-c4ccccc4F)c3)ncnc2cc1O[C@@H]1CCN(C2CC2)C1 [Example 113, (R)—N-(7-((1-cyclopropylpyrrolidin-3-yl)oxy)-4-((2-(2-fluorophenyl)pyridin-4-yl)amino)quinazolin-6-yl)acrylamide]
284 | 27.8 | 49.3 | C=CC(=O)Nc1cc2c(Nc3ccc(F)c(-c4ncccc4F)c3)ncnc2cc1OCCCN1CCN(C)CC1 [Example 43, N-(4-((4-fluoro-3-(3-fluoropyridin-2-yl)phenyl)amino)-7-(3-(4-methylpiperazin-1-yl)propoxy)quinazolin-6-yl)acrylamide]
687 | 10.1 | 25.5 | C=C(F)C(=O)Nc1cc2c(Nc3ccnc(-c4ccccc4F)c3)ncnc2cc1OCC(F)(F)F [Example 88, 2-fluoro-N-(4-((2-(2-fluorophenyl)pyridin-4-yl)amino)-7-(2,2,2-trifluoroethoxy)quinazolin-6-yl)acrylamide]
83 | 13.9 | 29.3 | C=CC(=O)Nc1cc2c(Nc3cccc(-c4ncccc4F)c3)ncnc2cc1OCCCN1CCN(C)CC1 [Example 44, N-(4-((3-(3-fluoropyridin-2-yl)phenyl)amino)-7-(3-(4-methylpiperazin-1-yl)propoxy)quinazolin-6-yl)acrylamide]
733 | 6.1 | 17 | C=C(F)C(=O)Nc1cc2c(Nc3ccnc(-c4ccccc4F)c3)ncnc2cc1N1CCC(N2CCOCC2)CC1 [Example 102, 2-fluoro-N-(4-((2-(2-fluorophenyl)pyridin-4-yl)amino)-7-(4-morpholinopiperidin-1-yl)quinazolin-6-yl)acrylamide]
352 | 33.9 | 106 | C=CC(=O)Nc1cc2c(Nc3cccc(-c4c(F)cc(F)cc4F)c3)ncnc2cc1OCCCN1CCOCC1 [Example 25, N-(7-(3-morpholinopropoxy)-4-((2′,4′,6′-trifluoro-[1,1′-biphenyl]-3-yl)amino)quinazolin-6-yl)acrylamide]
 | 40.6 | 89.9 | C=CC(=O)Nc1cc2c(Nc3cccc(-n4cccn4)c3)ncnc2cc1OCCN1CCOCC1 [Example 51, N-(4-((3-(1H-pyrazol-1-yl)phenyl)amino)-7-(2-morpholinoethoxy)quinazolin-6-yl)acrylamide]
 | 10.4 | 17.9 | C=CC(=O)Nc1cc2c(Nc3cccc(-n4cccn4)c3)ncnc2cc1OCCCN1CCOCC1 [Example 52, N-(4-((3-(1H-pyrazol-1-yl)phenyl)amino)-7-(3-morpholinopropoxy)quinazolin-6-yl)acrylamide]
 | 52.5 | 175 | C=CC(=O)Nc1cc2c(Nc3cccc(-c4ccc(F)cc4F)c3)ncnc2cc1OCCN1CCN(C)CC1 [Example 4, N-(4-((2′,4′-difluoro-[1,1′-biphenyl]-3-yl)amino)-7-(2-(4-methylpiperazin-1-yl)ethoxy)quinazolin-6-yl)acrylamide]
 | 67.9 | 107 | C=CC(=O)Nc1cc2c(Nc3cccc(-n4nccn4)c3)ncnc2cc1OCCN1CCOCC1 [Example 54, N-(4-((3-(2H-1,2,3-triazol-2-yl)phenyl)amino)-7-(2-morpholinoethoxy)quinazolin-6-yl)acrylamide]
2500 | 18.3 |  | C=C(F)C(=O)Nc1cc2c(Nc3ccnc(-c4ccccc4F)c3)ncnc2cc1N1CC(F)(F)C1 [Example 107, N-(7-(3,3-difluoroazetidin-1-yl)-4-((2-(2-fluorophenyl)pyridin-4-yl)amino)quinazolin-6-yl)-2-fluoroacrylamide]
 | 15 | 34.6 | C=CC(=O)Nc1cc2c(Nc3cccc(-n4nccn4)c3)ncnc2cc1OCCCN1CCOCC1 [Example 55, N-(4-((3-(2H-1,2,3-triazol-2-yl)phenyl)amino)-7-(3-morpholinopropoxy)quinazolin-6-yl)acrylamide]
